From ChEMBL document CHEMBL4725375, “Total synthesis and a systematic structure-activity relationship study of WAP-8294A2” (2020)
Converted amounts (≈) assume the structure as drawn.

Legend:
Staphylococcus aureus [1] = test: Antibacterial activity against Staphylococcus aureus ATCC 29213 by CLSI M07-A8 protocol based microdilution method; format: functional
Staphylococcus aureus [2] = test: Antibacterial activity against methicillin-resistant Staphylococcus aureus SA86 by CLSI M07-A8 protocol based microdilution method; format: functional

Row | SMILES | MIC (Staphylococcus aureus [1]) [µg/mL] | MIC (Staphylococcus aureus [2]) [µg/mL]
1 | CC(C)CCC[C@@H]1CC(=O)N[C@@H](CO)C(=O)N[C@H](CC(N)=O)C(=O)N[C@@H](CO)C(=O)NCC(=O)N(C)[C@H](Cc2ccccc2)C(=O)N[C@@H](CC(C)C)C(=O)N[C@H](CCCN)C(=O)N[C@@H](CCC(=O)O)C(=O)N[C@H](CC(N)=O)C(=O)N[C@H](Cc2c[nH]c3ccccc23)C(=O)N[C@H](Cc2c[nH]cn2)C(=O)N(C)[C@@H](C(C)C)C(=O)O1 | 2 (≈ 1.27 µM) | 2 (≈ 1.27 µM)
2 | CC(C)CCC[C@@H]1CC(=O)N[C@@H](CO)C(=O)N[C@H](CC(N)=O)C(=O)N[C@@H](CO)C(=O)NCC(=O)N(C)[C@H](Cc2ccccc2)C(=O)N[C@@H](CC(C)C)C(=O)N[C@H](CCCNC(=N)N)C(=O)N[C@@H](CCC(=O)O)C(=O)N[C@H](CC(N)=O)C(=O)N[C@H](Cc2c[nH]c3ccccc23)C(=O)N[C@H](CCCN)C(=O)N(C)[C@@H](C(C)C)C(=O)O1 | 1 (≈ 0.629 µM) | 2 (≈ 1.26 µM)
3 | CC(C)CCC[C@@H]1CC(=O)N[C@@H](CCCCN)C(=O)N[C@H](CC(N)=O)C(=O)N[C@@H](CO)C(=O)NCC(=O)N(C)[C@H](Cc2ccccc2)C(=O)N[C@@H](CC(C)C)C(=O)N[C@H](CCCN)C(=O)N[C@@H](CCC(=O)O)C(=O)N[C@H](CC(N)=O)C(=O)N[C@H](Cc2c[nH]c3ccccc23)C(=O)N[C@H](CCCN)C(=O)N(C)[C@@H](C(C)C)C(=O)O1 | 2 (≈ 1.26 µM) | 2 (≈ 1.26 µM)
4 | CC(C)CCC[C@@H]1CC(=O)N[C@@H](CO)C(=O)N[C@H](CCCCN)C(=O)N[C@@H](CO)C(=O)NCC(=O)N(C)[C@H](Cc2ccccc2)C(=O)N[C@@H](CC(C)C)C(=O)N[C@H](CCCN)C(=O)N[C@@H](CCC(=O)O)C(=O)N[C@H](CC(N)=O)C(=O)N[C@H](Cc2c[nH]c3ccccc23)C(=O)N[C@H](CCCN)C(=O)N(C)[C@@H](C(C)C)C(=O)O1 | 2 (≈ 1.28 µM) | 1 (≈ 0.641 µM)
5 | CC(C)CCC[C@@H]1CC(=O)N[C@@H](CO)C(=O)N[C@H](CC(N)=O)C(=O)N[C@@H](CO)C(=O)NCC(=O)N(C)[C@H](Cc2ccccc2)C(=O)N[C@@H](CC(C)C)C(=O)N[C@H](CCCN)C(=O)N[C@@H](CCC(=O)O)C(=O)N[C@H](CCCCN)C(=O)N[C@H](Cc2c[nH]c3ccccc23)C(=O)N[C@H](CCCN)C(=O)N(C)[C@@H](C(C)C)C(=O)O1 | 1 (≈ 0.641 µM) | 1 (≈ 0.641 µM)
6 | CC(C)CCC[C@@H]1CC(=O)N[C@@H](CO)C(=O)N[C@H](CC(N)=O)C(=O)N[C@@H](CO)C(=O)NCC(=O)N(C)[C@H](Cc2ccccc2)C(=O)N[C@@H](CC(C)C)C(=O)N[C@H](Cc2c[nH]cn2)C(=O)N[C@@H](CCC(=O)O)C(=O)N[C@H](CC(N)=O)C(=O)N[C@H](Cc2c[nH]c3ccccc23)C(=O)N[C@H](CCCN)C(=O)N(C)[C@@H](C(C)C)C(=O)O1 | 2 (≈ 1.27 µM) | 2 (≈ 1.27 µM)
